Assay results taken from patent US10188743B2, “Cytisine-linked isoflavonoid antineoplastic agents for the treatment of cancer” (UNIVERSITY OF KENTUCKY RESEARCH FOUNDATION, priority 2016, dated 2019).

Tested on: LS174T cancer cells
Assay: ATP analysis of treated cells
Format: cell-based
Experimental: ATP analysis: Cells growing in 12-well plates were treated with DMSO or inhibitors, and lysed by adding 1 mL boiling D.D. water. Supernatants were analyzed by luminescence using ATP Determination Kit (Invitrogen, A22066).

For `O=c1c(-c2ccc(Cl)cc2)coc2cc(OCCN3C[C@@H]4C[C@@H](C3)c3cccc(=O)n3C4)ccc12` [Compound 10c, (1 S,5S)-3-(2-((3-(4-chlorophenyl)-4-oxo-4H-chromen-7-yl)oxy)ethyl)-3,4,5,6-tetrahydro-1H-1,5-methanopyrido[1,2-a][1,5]diazocin-8(2H)-one], the “level of ATP” value was “decreased the levels”.
